Measured values published in patent publication US12415786B2, “Substituted 2-heteroarylaminobenzenes and the salts thereof and their use as herbicidal agents” (Bayer Aktiengesellschaft, priority 2019, dated 2025).

Key:
Type in all cases: in vivo
Agrostis tenuis = assay: Herbicidal early post-emergence action (96-well microtiter plates), AGSTE; conditions: 1900 g/ha, scored 9 to 12 days after treatment, 100% = plants have died, 0% = like untreated control plants
How it was run: (§1)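 Weed seeds grown in quartz sand in 96-well microtiter plates in a climate chamber and treated at the cotyledon stage, 5 to 7 days after sowing, with EC formulations at 2200 L/ha water and a rate equivalent to 1900 g/ha. Visual scoring after 9 to 12 days against untreated controls (0% = control, 100% = dead).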

Poa annua [1] = assay: Herbicidal early post-emergence action (96-well microtiter plates), POAAN; conditions: 1900 g/ha, scored 9 to 12 days after treatment, 100% = plants have died, 0% = like untreated control plants
How it was run: as §1

Amaranthus retroflexus [2] = assay: Herbicidal post-emergence action (greenhouse pots), AMARE; conditions: 1280 g/ha, visual rating about 3 weeks after treatment vs untreated controls
How it was run: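 Weeds were sown in sandy loam and treated at the one-leaf stage, 2–3 weeks after sowing. WP or EC formulations were applied with 0.5% additive at 600 L/ha water, at a rate of 1280 g/ha. Activity was rated visually after about 3 weeks against untreated controls (0% = untreated, 100% = dead).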

Echinochloa crus-galli [3] = assay: Herbicidal pre-emergence action (greenhouse pots), ECHCG; conditions: 1280 g/ha, visual scoring after about 3 weeks vs untreated controls
Description: (§2) In the examples and tables below, the following abbreviations are used: • Undesired Plants/Weeds: • ABUTH: Abutilon theophrasti • AGSTE: Agrostis tenuis • AMARE Amaranthus retroflexus • ECHCG: Echinochloa crus-galli • LOLRI: Lolium rigidum • MATIN: Matricaria inodora • POAAN: Poa annua • SETVI: Setaria viridis • STEME: Stellaria media A. Herbicidal Early Post-Emergence Action Seeds of mono- and dicotyledonous weed plants were placed in plastic pots in sandy loam soil (doubly sown with one species each of mono- or dicotyledonous weed plants per pot) and covered with soil. The compounds of the invention, formulated in the form of wettable powders (WP) or as emulsion concentrates (EC), were then applied onto the surface of the covering soil as aqueous suspension or emulsion with addition of 0.5% additive at a water application rate of 600 liters per hectare (converted). After the treatment, the pots were placed in a greenhouse and kept under good growth conditions for the test plants. After about 3 weeks, the effect of the preparations was scored visually in comparison with untreated controls as percentages. For example, 100% activity=the plants have died, 0% activity=like untreated control plants. Tables C1-C8 below show the effects of selected compounds of the general formula (I) according to Table 1 above on various harmful plants and an application rate corresponding to 1280 g/ha, which were obtained by the experimental procedure mentioned above.

Poa annua [4] = assay: Herbicidal pre-emergence action (greenhouse pots), POAAN; conditions: 1280 g/ha, visual scoring after about 3 weeks vs untreated controls
How it was run: (§3)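 Pre-emergence soil-surface spray at 1280 g/ha of WP- or EC-formulated compound with 0.5% additive and 600 L/ha water. Assessment after about 3 weeks in the greenhouse, as visual percent activity where 100% means plants died.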

Setaria viridis [5] = assay: Herbicidal pre-emergence action (greenhouse pots), SETVI; conditions: 1280 g/ha, visual scoring after about 3 weeks vs untreated controls
How it was run: as §3

Abutilon theophrasti [6] = assay: Herbicidal pre-emergence action (greenhouse pots), ABUTH; conditions: 1280 g/ha, visual scoring after about 3 weeks vs untreated controls
Description: as §2

Amaranthus retroflexus [7] = assay: Herbicidal pre-emergence action (greenhouse pots), AMARE; conditions: 1280 g/ha, visual scoring after about 3 weeks vs untreated controls
How it was run: as §3

Matricaria inodora = assay: Herbicidal pre-emergence action (greenhouse pots), MATIN; conditions: 1280 g/ha, visual scoring after about 3 weeks vs untreated controls
Description: as §2

Stellaria media [8] = assay: Herbicidal pre-emergence action (greenhouse pots), STEME; conditions: 1280 g/ha, visual scoring after about 3 weeks vs untreated controls
How it was run: as §3

Echinochloa crus-galli [9] = assay: Herbicidal post-emergence action (greenhouse pots), ECHCG; conditions: 1280 g/ha, rated after about 3 weeks, 100% = plants have died, 0% = like untreated control plants
Description: (§4) In the examples and tables below, the following abbreviations are used: • Undesired Plants/Weeds: • ABUTH: Abutilon theophrasti • AGSTE: Agrostis tenuis • AMARE Amaranthus retroflexus • ECHCG: Echinochloa crus-galli • LOLRI: Lolium rigidum • MATIN: Matricaria inodora • POAAN: Poa annua • SETVI: Setaria viridis • STEME: Stellaria media A. Herbicidal Early Post-Emergence Action Seeds of mono- and dicotyledonous weed plants were placed in plastic pots in sandy loam soil (doubly sown with in each case one species of mono- or dicotyledonous weed plants per pot), covered with soil and cultivated in a greenhouse under controlled growth conditions. 2 to 3 weeks after sowing, the test plants were treated at the one-leaf stage. The compounds of the invention, formulated in the form of wettable powders (WP) or as emulsion concentrates (EC), were applied onto the green parts of the plants as aqueous suspension or emulsion with addition of 0.5% additive at a water application rate of 600 liters per hectare (converted). After the test plants had been kept in the greenhouse under optimum growth conditions for about 3 weeks, the activity of the preparations was rated visually in comparison to untreated controls. For example, 100% activity=the plants have died, 0% activity=like untreated control plants. Tables B1-B8 below show the effects of selected compounds of the general formula (I) according to Table 1 above on various harmful plants and an application rate corresponding to 1280 g/ha, which were obtained by the experimental procedure mentioned above.

Abutilon theophrasti [10] = assay: Herbicidal post-emergence action (greenhouse pots), ABUTH; conditions: 1280 g/ha, visual rating about 3 weeks after treatment vs untreated controls
Description: as §4

Stellaria media [11] = assay: Herbicidal post-emergence action (greenhouse pots), STEME; conditions: 1280 g/ha, visual rating about 3 weeks after treatment vs untreated controls
Description: as §4

Setaria viridis [12] = assay: Herbicidal post-emergence action (greenhouse pots), SETVI; conditions: 1280 g/ha, rated after about 3 weeks, 100% = plants have died, 0% = like untreated control plants
Description: as §4

Poa annua [13] = assay: Herbicidal post-emergence action (greenhouse pots), POAAN; conditions: 1280 g/ha, visual rating about 3 weeks after treatment vs untreated controls
Description: as §4

N#Cc1ccc(Oc2c(C#N)cccc2Nc2ncccn2)cc1 [Example 1-261]
AGSTE (herbicidal activity, scored visually in comparison to untreated controls) (Agrostis tenuis): 80% | POAAN (herbicidal activity, scored visually in comparison to untreated controls) (Poa annua [1]): 80% | herbicidal activity AMARE (Amaranthus retroflexus [2]): 100% | herbicidal activity ECHCG (Echinochloa crus-galli [3]): 100% | herbicidal activity POAAN (Poa annua [4]): 100% | herbicidal activity SETVI (Setaria viridis [5]): 100% | herbicidal activity ABUTH (Abutilon theophrasti [6]): 100% | herbicidal activity AMARE (Amaranthus retroflexus [7]): 100% | herbicidal activity MATIN (Matricaria inodora): 100% | herbicidal activity STEME (Stellaria media [8]): 100%

N#Cc1cccc(Nc2ncc(F)cn2)c1Oc1cccc(F)c1 [Example 1-266]
AGSTE (herbicidal activity, scored visually in comparison to untreated controls) (Agrostis tenuis): 80% | POAAN (herbicidal activity, scored visually in comparison to untreated controls) (Poa annua [1]): 100% | ECHCG (herbicidal activity, rated visually in comparison to untreated controls) (Echinochloa crus-galli [9]): 100% | herbicidal activity ABUTH (Abutilon theophrasti [10]): 100% | herbicidal activity AMARE (Amaranthus retroflexus [2]): 100% | herbicidal activity STEME (Stellaria media [11]): 100% | herbicidal activity ECHCG (Echinochloa crus-galli [3]): 90% | herbicidal activity POAAN (Poa annua [4]): 100% | herbicidal activity SETVI (Setaria viridis [5]): 100% | herbicidal activity AMARE (Amaranthus retroflexus [7]): 100% | herbicidal activity MATIN (Matricaria inodora): 100% | herbicidal activity STEME (Stellaria media [8]): 100%

N#Cc1cccc(Nc2ncc(F)cn2)c1Oc1cccc(Cl)c1 [Example 1-268]
AGSTE (herbicidal activity, scored visually in comparison to untreated controls) (Agrostis tenuis): 100% | POAAN (herbicidal activity, scored visually in comparison to untreated controls) (Poa annua [1]): 80% | herbicidal activity AMARE (Amaranthus retroflexus [2]): 90% | herbicidal activity ABUTH (Abutilon theophrasti [6]): 90% | herbicidal activity AMARE (Amaranthus retroflexus [7]): 90%

N#Cc1cccc(Nc2ncc(F)cn2)c1Oc1ccc(F)cc1F [Example 1-270]
AGSTE (herbicidal activity, scored visually in comparison to untreated controls) (Agrostis tenuis): 80% | POAAN (herbicidal activity, scored visually in comparison to untreated controls) (Poa annua [1]): 80% | ECHCG (herbicidal activity, rated visually in comparison to untreated controls) (Echinochloa crus-galli [9]): 90% | SETVI (herbicidal activity, rated visually in comparison to untreated controls) (Setaria viridis [12]): 90% | herbicidal activity ABUTH (Abutilon theophrasti [10]): 90% | herbicidal activity AMARE (Amaranthus retroflexus [2]): 100% | herbicidal activity STEME (Stellaria media [11]): 100% | herbicidal activity ECHCG (Echinochloa crus-galli [3]): 100% | herbicidal activity POAAN (Poa annua [4]): 100% | herbicidal activity SETVI (Setaria viridis [5]): 100% | herbicidal activity AMARE (Amaranthus retroflexus [7]): 100% | herbicidal activity MATIN (Matricaria inodora): 100% | herbicidal activity STEME (Stellaria media [8]): 100%

N#Cc1cccc(Nc2ncc(F)cn2)c1Oc1ccc(Cl)cc1F [Example 1-275]
AGSTE (herbicidal activity, scored visually in comparison to untreated controls) (Agrostis tenuis): 80% | POAAN (herbicidal activity, scored visually in comparison to untreated controls) (Poa annua [1]): 100% | ECHCG (herbicidal activity, rated visually in comparison to untreated controls) (Echinochloa crus-galli [9]): 90% | SETVI (herbicidal activity, rated visually in comparison to untreated controls) (Setaria viridis [12]): 90% | herbicidal activity ABUTH (Abutilon theophrasti [10]): 90% | herbicidal activity AMARE (Amaranthus retroflexus [2]): 100% | herbicidal activity STEME (Stellaria media [11]): 100% | herbicidal activity ECHCG (Echinochloa crus-galli [3]): 90% | herbicidal activity POAAN (Poa annua [4]): 100% | herbicidal activity SETVI (Setaria viridis [5]): 100% | herbicidal activity AMARE (Amaranthus retroflexus [7]): 100% | herbicidal activity MATIN (Matricaria inodora): 90% | herbicidal activity STEME (Stellaria media [8]): 100%

N#Cc1ccc(Oc2c(C#N)cccc2Nc2ncc(F)cn2)cc1 [Example 1-280]
AGSTE (herbicidal activity, scored visually in comparison to untreated controls) (Agrostis tenuis): 100% | POAAN (herbicidal activity, scored visually in comparison to untreated controls) (Poa annua [1]): 100% | herbicidal activity AMARE (Amaranthus retroflexus [2]): 100% | herbicidal activity STEME (Stellaria media [11]): 100% | herbicidal activity ECHCG (Echinochloa crus-galli [3]): 100% | herbicidal activity POAAN (Poa annua [4]): 100% | herbicidal activity SETVI (Setaria viridis [5]): 100% | herbicidal activity ABUTH (Abutilon theophrasti [6]): 100% | herbicidal activity AMARE (Amaranthus retroflexus [7]): 100% | herbicidal activity MATIN (Matricaria inodora): 100% | herbicidal activity STEME (Stellaria media [8]): 100%

N#Cc1cccc(Nc2ncc(Cl)cn2)c1Oc1ccc(Cl)cc1 [Example 1-288]
AGSTE (herbicidal activity, scored visually in comparison to untreated controls) (Agrostis tenuis): 80% | POAAN (herbicidal activity, scored visually in comparison to untreated controls) (Poa annua [1]): 80% | ECHCG (herbicidal activity, rated visually in comparison to untreated controls) (Echinochloa crus-galli [9]): 100% | herbicidal activity POAAN (Poa annua [13]): 100% | SETVI (herbicidal activity, rated visually in comparison to untreated controls) (Setaria viridis [12]): 90% | herbicidal activity ABUTH (Abutilon theophrasti [10]): 90% | herbicidal activity AMARE (Amaranthus retroflexus [2]): 100% | herbicidal activity ECHCG (Echinochloa crus-galli [3]): 90% | herbicidal activity POAAN (Poa annua [4]): 100% | herbicidal activity SETVI (Setaria viridis [5]): 100% | herbicidal activity AMARE (Amaranthus retroflexus [7]): 100% | herbicidal activity STEME (Stellaria media [8]): 100%

N#Cc1cccc(Nc2ncc(Cl)cn2)c1Oc1ccc(F)cc1F [Example 1-289]
AGSTE (herbicidal activity, scored visually in comparison to untreated controls) (Agrostis tenuis): 80% | POAAN (herbicidal activity, scored visually in comparison to untreated controls) (Poa annua [1]): 80% | ECHCG (herbicidal activity, rated visually in comparison to untreated controls) (Echinochloa crus-galli [9]): 100% | SETVI (herbicidal activity, rated visually in comparison to untreated controls) (Setaria viridis [12]): 90% | herbicidal activity ABUTH (Abutilon theophrasti [10]): 90% | herbicidal activity AMARE (Amaranthus retroflexus [2]): 100% | herbicidal activity STEME (Stellaria media [11]): 100% | herbicidal activity POAAN (Poa annua [4]): 100% | herbicidal activity SETVI (Setaria viridis [5]): 100% | herbicidal activity AMARE (Amaranthus retroflexus [7]): 100% | herbicidal activity MATIN (Matricaria inodora): 100% | herbicidal activity STEME (Stellaria media [8]): 100%

N#Cc1cccc(Nc2ncc(Cl)cn2)c1Oc1ccc(C(F)(F)F)cc1 [Example 1-298]
AGSTE (herbicidal activity, scored visually in comparison to untreated controls) (Agrostis tenuis): 80% | POAAN (herbicidal activity, scored visually in comparison to untreated controls) (Poa annua [1]): 80% | herbicidal activity POAAN (Poa annua [13]): 90% | SETVI (herbicidal activity, rated visually in comparison to untreated controls) (Setaria viridis [12]): 90% | herbicidal activity ABUTH (Abutilon theophrasti [10]): 90% | herbicidal activity AMARE (Amaranthus retroflexus [2]): 100% | herbicidal activity STEME (Stellaria media [11]): 100% | herbicidal activity POAAN (Poa annua [4]): 100% | herbicidal activity SETVI (Setaria viridis [5]): 100% | herbicidal activity AMARE (Amaranthus retroflexus [7]): 100% | herbicidal activity MATIN (Matricaria inodora): 90% | herbicidal activity STEME (Stellaria media [8]): 100%
